The values that follow come from patent publication US5316929A, “Process for the preparation of MA” (Hoechst Aktiengesellschaft, priority 1991, dated 1994).

Entries after “also recorded” stand apart in the source; their conditions may differ.

The first experiment deals with biosynthesis of the peptidoglycan framework of the bacterial cell wall.
Assay: not given
Conditions: cited from earlier work.
For `C=C(C/C=C(\C)CCC=C(C)C)CCC(C)(C)/C=C/CC/C(C)=C/CO[C@@H](COP(=O)(O)O[C@H]1O[C@H](C(N)=O)[C@@](C)(O)[C@H](OC(N)=O)[C@H]1O[C@@H]1O[C@H](CO[C@@H]2O[C@H](CO)[C@@H](O)[C@H](O)[C@H]2O)[C@@H](O[C@@H]2O[C@H](C)[C@@H](O[C@@H]3O[C@H](C(=O)NC4=C(O)CCC4=O)[C@H](O)[C@H](O)[C@H]3O)[C@H](O)[C@H]2NC(C)=O)[C@H](O)[C@H]1NC(C)=O)C(=O)O` [Moenomycin A], the “Inhibition of the biosynthesis of the peptidoglycan framework of the bacterial cell wall” value is “inhibits”.

The next experiment concerns moenomycinase. Briefly: Moenomycinase activity (cleavage of moenomycin A, TLC/UV analysis). Particulars: EDTA 10 mM in FIG. 1. The class given is biochemical, Bacillus sp. DSM 4675. The procedure: Partially purified moenomycinase was dialyzed for 24 hours. The dialyzed moenomycinase was incubated with moenomycin A (6 mg/ml) in 100 mM potassium phosphate buffer, pH 8.0, for 31 hours with the addition of metal ions (0.5 or 1.0 mM, except K^+ =20 mM0 or EDTA (10 mM). Enzyme activity was measured by determining the amount of MC formed using TLC and UV analysis as described in Example 3. The TLC plates were scanned at a wavelength of 254 nm using a DESAGA Chromatogram Densitometer CD50. Enzyme activity is expressed relative to the activity of the dialyzed preparation ("Dial").
FIG. 2. Activation of Moenomycinase by Cobalt. Purified moenomycinase was incubated with moenomycin A in the presence of the indicated concentrations of Co^++. Enzyme activity was measured by determining the amount of MB formed using TLC and UV analysis as described in FIG. 1.
The molecular weight of moenomycinase is 230,000±10,000 Dalton. Moenomycinase has an optical pH of 8.0 to 8.5 and an optimal temperature of 45° to 55° C. Moenomycinase has a Km value of 4 to 10 mmolar based on moenomycin A as substrate.
As to `C=O` [formalin], the Inhibition of moenomycinase result is reported as “inhibited”.

Turning to `CC(=O)OCC1=C(C(=O)O)N2C(=O)[C@@H](NC(=O)CCC[C@@H](N)C(=O)O)[C@H]2SC1` [Cephalosporin C], the Inhibition of moenomycinase result is “inhibited”.

With `O=C(O)CN(CCN(CC(=O)O)CC(=O)O)CC(=O)O` [EDTA], the Inhibition of moenomycinase result is on record as “inhibited”.

Take `CC(=O)OCC1=C(C(=O)O)N2C(=O)[C@@H](N)[C@H]2SC1` [7-aminocephalosporin acid (7-ACA), 7-aminocephalosporin acid]: the Inhibition of moenomycinase entry is recorded as “inhibited”.

The experiment is the same for the next values; noted with them: metal ions 0.05-1.0 mM.
On to `[Co+2]` [Co^++], for which the Activation of moenomycinase entry was “activated”.

As to `[Mg+2]` [Mg^++], the Activation of moenomycinase entry is “activated”.

Consider `[Ca+2]` [Ca^++], for which the Activation of moenomycinase result is “activated”.

Regarding `[Ni+2]` [Ni^++], the Activation of moenomycinase result is “activated; also recorded: greatest activation”.
